Results published in PubChem BioAssay AID256 (DTP/NCI, 2004).
Where “and” joins values, the source holds several entries; their conditions need not be identical. Identical values can stand only once. Inconclusive results and toxic doses are left out.

Tested on: CD2F1 mice, L1210 leukemia ip, survival T/C
Test: NCI In Vivo Anticancer Drug Screen. Data for tumor model L1210 Leukemia (intraperitoneal) in CD2F1 (CDF1) mice
Settings: higher = longer survival
Outline: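 Read-out first: treated-group measurement over vehicle-control measurement, expressed as a ratio. Animals bore a transplanted tumor line and were dosed with compound or vehicle.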

[1] = endpoint: mean survival time, dose: 25.0 mg/kg/injection, schedule: Q01DX009 (ip), vehicle: saline with Tween-80
[2] = endpoint: mean survival time, dose: 50.0 mg/kg/injection, schedule: Q01DX009 (ip), vehicle: saline with Tween-80
[3] = endpoint: mean survival time, dose: 100.0 mg/kg/injection, schedule: Q01DX009 (ip), vehicle: saline with Tween-80
[4] = endpoint: mean survival time, dose: 100.0 mg/kg/injection, schedule: Q01DX009 (ip), vehicle: saline
[5] = endpoint: mean survival time, dose: 200.0 mg/kg/injection, schedule: Q01DX009 (ip), vehicle: saline
[6] = endpoint: mean survival time, dose: 400.0 mg/kg/injection, schedule: Q01DX009 (ip), vehicle: saline
[7] = endpoint: mean survival time, dose: 100.0 mg/kg/injection, schedule: Q01DX009 (ip), vehicle: saline sonified
[8] = endpoint: mean survival time, dose: 100.0 mg/kg/injection, schedule: Q04DX003 (ip), vehicle: saline with Tween-80
[9] = endpoint: mean survival time, dose: 200.0 mg/kg/injection, schedule: Q01DX009 (ip), vehicle: saline sonified
[10] = endpoint: mean survival time, dose: 200.0 mg/kg/injection, schedule: Q04DX003 (ip), vehicle: saline with Tween-80
[11] = endpoint: mean survival time, dose: 400.0 mg/kg/injection, schedule: Q04DX003 (ip), vehicle: saline with Tween-80

With ClCc1ccc(CCl)cc1 the T/C (endpoint: mean survival time, dose: 25.0 mg/kg/injection, schedule: Q04DX003 (ip), vehicle: Klucel (hydroxypropylcellulose) (HPC)) was 98 % of control, the T/C (endpoint: mean survival time, dose: 50.0 mg/kg/injection, schedule: Q04DX003 (ip), vehicle: Klucel (hydroxypropylcellulose) (HPC)) was 105 % of control and the T/C (endpoint: mean survival time, dose: 100.0 mg/kg/injection, schedule: Q04DX003 (ip), vehicle: Klucel (hydroxypropylcellulose) (HPC)) was 89 % of control.

For O=C(O)C1C(c2ccccc2)=C(c2ccccc2)c2ccccc21 (stereo not drawn), the T/C [1] was 94 % of control, the T/C [2] was 93 % of control and the T/C [3] was 98 % of control.

CCOC(=O)c1c(-c2ccccc2)[nH]c(C)cc1=O was tested, and the T/C (endpoint: mean survival time, dose: 100.0 mg/kg/injection, schedule: Q04DX002 (ip), vehicle: saline with Tween-80) was 100 % of control, the T/C (endpoint: mean survival time, dose: 200.0 mg/kg/injection, schedule: Q04DX002 (ip), vehicle: saline with Tween-80) was 100 % of control and the T/C (endpoint: mean survival time, dose: 400.0 mg/kg/injection, schedule: Q04DX002 (ip), vehicle: saline with Tween-80) was 100 % of control.

With N#Cc1[nH]nc2ncnc(N)c12 the T/C (endpoint: mean survival time, dose: 6.25 mg/kg/injection, schedule: Q01DX009 (ip), vehicle: saline with Tween-80) was 100 % of control, the T/C (endpoint: mean survival time, dose: 12.5 mg/kg/injection, schedule: Q01DX009 (ip), vehicle: saline with Tween-80) was 100 % of control and the T/C [1] was 93 % of control. For the same molecule, the T/C [2] was 91 % of control and 98 % of control.

O=Cc1cc2c(c3ccccc13)CCCC2 was tested, and the T/C [3] was 97 % of control, the T/C (endpoint: mean survival time, dose: 200.0 mg/kg/injection, schedule: Q01DX009 (ip), vehicle: saline with Tween-80) was 98 % of control and the T/C (endpoint: mean survival time, dose: 400.0 mg/kg/injection, schedule: Q01DX009 (ip), vehicle: saline with Tween-80) was 98 % of control.

With CCCCCCCCCCCCc1ccc(CSC(C(=O)OC)C(SCc2ccc(CCCCCCCCCCCC)cc2)C(=O)OC)cc1 (stereo not drawn) the T/C [4] was 102 % of control, the T/C [5] was 100 % of control and the T/C [6] was 104 % of control.

With ClC1(Cl)C2CCCCC21 (stereo not drawn) the T/C (endpoint: mean survival time, dose: 50.0 mg/kg/injection, schedule: Q01DX009 (ip), vehicle: saline sonified) was 98 % of control, the T/C [7] was 98 % of control and the T/C [8] was 98 % of control. For the same molecule, the T/C [9] was 97 % of control and the T/C [10] was 97 % of control.

With S=C1SCCS1 the T/C (endpoint: mean survival time, dose: 100.0 mg/kg/injection, schedule: Q04DX003 (ip), vehicle: saline sonified) was 98 % of control, the T/C (endpoint: mean survival time, dose: 200.0 mg/kg/injection, schedule: Q04DX003 (ip), vehicle: saline sonified) was 107 % of control and the T/C (endpoint: mean survival time, dose: 400.0 mg/kg/injection, schedule: Q04DX003 (ip), vehicle: saline sonified) was 89 % of control.

With N=C(OC/C=C/c1ccccc1)C(Cl)(Cl)Cl the T/C (endpoint: mean survival time, dose: 100.0 mg/kg/injection, schedule: Q01DX001 (ip), vehicle: saline with Tween-80) was 93 % of control, the T/C (endpoint: mean survival time, dose: 200.0 mg/kg/injection, schedule: Q01DX001 (ip), vehicle: saline with Tween-80) was 93 % of control and the T/C (endpoint: mean survival time, dose: 400.0 mg/kg/injection, schedule: Q01DX001 (ip), vehicle: saline with Tween-80) was 93 % of control.

With S=C(S)NCCNC(=S)S the T/C [4] was 102 % of control, the T/C [5] was 100 % of control and the T/C [6] was 90 % of control.

For C[C@]12CC[C@H](OC3OC(CO)C(O)C(O)C3O)C[C@H]1CC[C@@H]1[C@@H]2CC[C@]2(C)[C@@H](C3=CCOC3=O)CC[C@]12O (stereo partly drawn), the T/C (endpoint: mean survival time, dose: 0.5 mg/kg/injection, schedule: Q01DX009 (ip), vehicle: saline) was 110 % of control, the T/C (endpoint: mean survival time, dose: 1.0 mg/kg/injection, schedule: Q01DX009 (ip), vehicle: saline) was 110 % of control and the T/C (endpoint: mean survival time, dose: 2.0 mg/kg/injection, schedule: Q01DX009 (ip), vehicle: saline) was 107 % of control. The T/C (endpoint: median survival time, dose: 0.5 mg/kg/injection, schedule: Q01DX009 (ip), vehicle: saline) was 112 % of control, the T/C (endpoint: median survival time, dose: 1.0 mg/kg/injection, schedule: Q01DX009 (ip), vehicle: saline) was 108 % of control and the T/C (endpoint: median survival time, dose: 2.0 mg/kg/injection, schedule: Q01DX009 (ip), vehicle: saline) was 113 % of control. For the same molecule, the T/C (endpoint: median survival time, dose: 4.0 mg/kg/injection, schedule: Q01DX009 (ip), vehicle: saline) was 91 % of control.

In the case of [Cl][Pt+2][Cl].[NH-]c1ccc(S(N)(=O)=O)cc1.[NH-]c1ccc(S(N)(=O)=O)cc1, the T/C (endpoint: mean survival time, dose: 25.0 mg/kg/injection, schedule: Q04DX003 (ip), vehicle: saline with Tween-80) is reported as 90 % of control, the T/C (endpoint: mean survival time, dose: 50.0 mg/kg/injection, schedule: Q04DX003 (ip), vehicle: saline with Tween-80) is reported as 98 % of control and the T/C [8] is reported as 94 % of control. For the same molecule, the T/C [10] was 102 % of control and the T/C [11] was 102 % of control.

In the case of O=C1c2ccccc2C(=O)c2c(O)c(Cc3ccccn3)cc(O)c21, the T/C [7] is reported as 96 % of control, the T/C [9] is reported as 94 % of control and the T/C (endpoint: mean survival time, dose: 400.0 mg/kg/injection, schedule: Q01DX009 (ip), vehicle: saline sonified) is reported as 98 % of control.

For COC(=O)C(C)NC(=O)C(CO)NC(=O)c1cnc2ccccc2n1 (stereo not drawn), the T/C (endpoint: mean survival time, dose: 100.0 mg/kg/injection, schedule: Q01DX001 (ip), vehicle: saline) was 98 % of control, the T/C (endpoint: mean survival time, dose: 200.0 mg/kg/injection, schedule: Q01DX001 (ip), vehicle: saline) was 102 % of control and the T/C (endpoint: mean survival time, dose: 400.0 mg/kg/injection, schedule: Q01DX001 (ip), vehicle: saline) was 94 % of control.

c1ccc(C(c2ccccc2)[P+](c2ccccc2)(c2ccccc2)c2ccccc2)cc1 was tested, and the T/C (endpoint: mean survival time, dose: 375.0 micrograms/kg/injection, schedule: Q01DX001 (ip), vehicle: gum acacia) was 92 % of control, the T/C (endpoint: mean survival time, dose: 375.0 micrograms/kg/injection, schedule: Q01DX009 (ip), vehicle: gum acacia) was 106 % of control and the T/C (endpoint: mean survival time, dose: 375.0 micrograms/kg/injection, schedule: Q04DX003 (ip), vehicle: gum acacia) was 95 % of control. The T/C (endpoint: mean survival time, dose: 750.0 micrograms/kg/injection, schedule: Q01DX001 (ip), vehicle: gum acacia) was 103 % of control, the T/C (endpoint: mean survival time, dose: 750.0 micrograms/kg/injection, schedule: Q01DX009 (ip), vehicle: gum acacia) was 101 % of control and the T/C (endpoint: mean survival time, dose: 750.0 micrograms/kg/injection, schedule: Q04DX003 (ip), vehicle: gum acacia) was 101 % of control. The T/C (endpoint: mean survival time, dose: 1500.0 micrograms/kg/injection, schedule: Q01DX001 (ip), vehicle: gum acacia) was 101 % of control, the T/C (endpoint: mean survival time, dose: 1500.0 micrograms/kg/injection, schedule: Q01DX009 (ip), vehicle: gum acacia) was 108 % of control and the T/C (endpoint: mean survival time, dose: 1500.0 micrograms/kg/injection, schedule: Q04DX003 (ip), vehicle: gum acacia) was 106 % of control. The T/C (endpoint: mean survival time, dose: 3000.0 micrograms/kg/injection, schedule: Q01DX001 (ip), vehicle: gum acacia) was 98 % of control, the T/C (endpoint: mean survival time, dose: 3000.0 micrograms/kg/injection, schedule: Q01DX009 (ip), vehicle: gum acacia) was 112 % of control and the T/C (endpoint: mean survival time, dose: 3000.0 micrograms/kg/injection, schedule: Q04DX003 (ip), vehicle: gum acacia) was 108 % of control. The T/C (endpoint: mean survival time, dose: 6000.0 micrograms/kg/injection, schedule: Q01DX001 (ip), vehicle: gum acacia) was 112 % of control, the T/C (endpoint: mean survival time, dose: 6000.0 micrograms/kg/injection, schedule: Q01DX009 (ip), vehicle: gum acacia) was 92 % of control and the T/C (endpoint: mean survival time, dose: 6000.0 micrograms/kg/injection, schedule: Q04DX003 (ip), vehicle: gum acacia) was 114 % of control.

For CCOC(CC)C(O)(c1ccc(N(C)C)cc1)c1ccc(N(C)C)cc1 (stereo not drawn), the T/C [8] was 97 % of control, the T/C [10] was 102 % of control and the T/C [11] was 94 % of control.

For CC1CC/C(=N/NC(N)=O)C1 (stereo not drawn), the T/C (endpoint: mean survival time, dose: 50.0 mg/kg/injection, schedule: Q01DX001 (ip), vehicle: carboxymethylcellulose (CMC)) was 100 % of control, the T/C (endpoint: mean survival time, dose: 100.0 mg/kg/injection, schedule: Q01DX001 (ip), vehicle: carboxymethylcellulose (CMC)) was 94 % of control and the T/C (endpoint: mean survival time, dose: 200.0 mg/kg/injection, schedule: Q01DX001 (ip), vehicle: carboxymethylcellulose (CMC)) was 100 % of control. For the same molecule, the T/C (endpoint: mean survival time, dose: 400.0 mg/kg/injection, schedule: Q01DX001 (ip), vehicle: carboxymethylcellulose (CMC)) was 100 % of control.

For O=C(O)C(=O)O.[La], the T/C (endpoint: mean survival time, dose: 200.0 mg/kg/injection, schedule: Q01DX009 (ip), vehicle: other) was 98 % of control and the T/C (endpoint: mean survival time, dose: 400.0 mg/kg/injection, schedule: Q01DX009 (ip), vehicle: other) was 96 % of control.

With COc1cc2c(c(OC)c1O)-c1ccc(OC)c(=O)cc1[C@@H](NC(=O)C(F)(F)F)CC2 the T/C (endpoint: median survival time, dose: 0.62 mg/kg/injection, schedule: Q01DX009 (ip), vehicle: Klucel (hydroxypropylcellulose) (HPC)) was 118 % of control, the T/C (endpoint: median survival time, dose: 1.25 mg/kg/injection, schedule: Q01DX009 (ip), vehicle: Klucel (hydroxypropylcellulose) (HPC)) was 123 % of control and the T/C (endpoint: median survival time, dose: 2.5 mg/kg/injection, schedule: Q01DX005 (ip), vehicle: Klucel (hydroxypropylcellulose) (HPC)) was 164 % of control. For the same molecule, the T/C (endpoint: median survival time, dose: 3.0 mg/kg/injection, schedule: Q01DX005 (ip), vehicle: Klucel (hydroxypropylcellulose) (HPC)) was 175 % of control, the T/C (endpoint: median survival time, dose: 5.0 mg/kg/injection, schedule: Q01DX005 (ip), vehicle: Klucel (hydroxypropylcellulose) (HPC)) was 171 % of control and the T/C (endpoint: median survival time, dose: 8.32 mg/kg/injection, schedule: Q01DX005 (ip), vehicle: Klucel (hydroxypropylcellulose) (HPC)) was 167 % of control. For the same molecule, the T/C (endpoint: median survival time, dose: 10.0 mg/kg/injection, schedule: Q01DX005 (ip), vehicle: Klucel (hydroxypropylcellulose) (HPC)) was 160 % of control and the T/C (endpoint: median survival time, dose: 13.88 mg/kg/injection, schedule: Q01DX005 (ip), vehicle: Klucel (hydroxypropylcellulose) (HPC)) was 164 % of control.
